The subject of assay [1] is partially nephrectomized mice. Put plainly: 5/6 nephrectomy model. The format is in vivo. On the set-up: reduction in UACR / UACR reduction vs vehicle: concentration or dose not given beside the values. The note with it: for UACR reduction vs vehicle: 5/6 nephrectomy model (Example 7, FIG. 8), week one. Here is the method: 5/6 nephrectomy mice on the 129X1/SvJ background were obtained from Jackson Laboratories, and were received at ChemoCentryx after the surgery was performed at JAX. Under isoflurane anesthesia, two-thirds of the left kidney mass was removed at 5-6 weeks of age. Then, after 7 to 10 days, a right unilateral nephrectomy was performed. The mice were fed a standard chow and had free access to water. Three weeks after the 5/6 nephrectomy, the mice were grouped to ensure a similar starting UAER in each treatment group. […] The RAAS blocker candesartan (AK Scientific, Union City, Calif.) and its vehicle were dosed orally once daily at 5 mg/kg formulated in water. Sparsentan, the dual-acting receptor antagonist for endothelin (A type) and angiotensin II receptors (Type 1) (Murugesan et al, 2005) was synthesized at ChemoCentryx and was dosed orally twice daily at 90 mg/kg formulated in 1% HPMC. The mice were housed individually in metabolic cages for quantitative collection of urinary albumin and creatinine.
Chemotaxis, calcium mobilization, and radio-ligand binding assays were conducted as previously described (Sullivan et al, 2013; Walters et al, 2010). Inhibition values (IC50) were calculated using non-linear regression with a one-site competition model (GraphPad Prism, GraphPad Software, La Jolla, Calif.). A2 values for assessment of potency in chemotaxis assays denotes the concentration of the antagonist required to right-shift by 2-fold the chemokine dose-response curve. […] Urinary albumin was measured by ELISA (Bethyl Labs, Montgomery, Tex.). Urinary and serum creatinine was measured by LC-MS/MS at ChemoCentryx. The urinary albumin excretion rate (UAER) was calculated as micrograms per 24 h. Blood urea nitrogen (BUN) was measured by Antech Diagnostics (Morrisville, N.C.). The albumin to creatinine ratio (ACR) was calculated as micrograms of albumin per milligram of creatinine.
To corroborated the above findings, another FSGS model mechanistically distinct from the Adriamycin approach was tested, the 5/6 nephrectomy model. Beginning three weeks after the completion of surgery, the mice were treated with Compound 1 or RAAS blocker either alone or in combination. As above, renal function was quantified by measuring the UACR, UAER serum creatinine and BUN levels.

The subject of assay [2] is Adriamycin challenged mice. Put plainly: Adriamycin induced FSGS model. It is filed as in vivo. The note with it: Adriamycin nephropathy model, Compound 1 90 mg/kg s.c. once daily, RAAS blocker 5 mg/kg orally once daily. The protocol: These experiments were performed using female Balb/c mice (Jackson Laboratories, Bar Harbor, Me.). The mice were kept on standard chow and had free access to water. At age of 10 weeks, 7.5 mg/kg Adriamycin (Selleck Chemicals, Houston, Tex.) or saline (control) was injected via tail vein in isoflurane-anesthetized animals (day 0). […] The RAAS blocker Candesartan (AK Scientific, Union City, Calif.) and its vehicle were dosed orally once daily at 5 mg/kg, formulated in water. All dosing started 2 hours prior Adriamycin challenge. The mice were housed individually in metabolic cages for quantitative collection of urinary albumin and creatinine. Chemotaxis, calcium mobilization, and radio-ligand binding assays were conducted as previously described (Sullivan et al, 2013; Walters et al, 2010). Inhibition values (IC50) were calculated using non-linear regression with a one-site competition model (GraphPad Prism, GraphPad Software, La Jolla, Calif.). A2 values for assessment of potency in chemotaxis assays denotes the concentration of the antagonist required to right-shift by 2-fold the chemokine dose-response curve. […] Urinary albumin was measured by ELISA (Bethyl Labs, Montgomery, Tex.). Urinary and serum creatinine was measured by LC-MS/MS at ChemoCentryx. The urinary albumin excretion rate (UAER) was calculated as micrograms per 24 h. Blood urea nitrogen (BUN) was measured by Antech Diagnostics (Morrisville, N.C.). The albumin to creatinine ratio (ACR) was calculated as micrograms of albumin per milligram of creatinine. […] Adriamycin is an oncolytic antibiotic that induces proteinuria and glomerulosclerosis in rodents after a single infusion. […] The level of protection was equal to or better than that of RAAS blockade.

Where [3] appears, read: 5/6 nephrectomy model, comparison with ET1/AT2 dual inhibitor (Table 4), Week 1.
[4] abbreviates: 5/6 nephrectomy model, comparison with ET1/AT2 dual inhibitor (Table 4), Week 2.
[5] abbreviates: 5/6 nephrectomy model, comparison with ET1/AT2 dual inhibitor (Table 4), Week 4.

Each structure is given as a SMILES string.

As for `CCCCC1=NC2(CCCC2)C(=O)N1Cc1ccc(-c2ccccc2S(=O)(=O)Nc2noc(C)c2C)c(COCC)c1` [ET1/AT2 Dual Blocker, Sparsentan, reference compound], in assay [1], the “UACR reduction vs vehicle” value is given as 93.5%. Moreover, the UAER in assay [1] (setting [3]) is on record as 2.6, p = 0.036 mg/day; in assay [1] (setting [4]), 1.5, p = 0.01 mg/day; in assay [1] (setting [5]), 1.15, p = 0.001 mg/day.
For the compound `CCOc1nc2cccc(C(=O)O)c2n1Cc1ccc(-c2ccccc2-c2nnn[nH]2)cc1` [RAAS Blocker, Candesartan, reference compound], the UAER is 39.46, p = 0.16 mg/day in assay [2] (Week 1); 66.87 mg/day in assay [2] (Week 2); 8.27, p = 0.03 mg/day in assay [1] (5/6 nephrectomy model (Table 3), Week 1, Compound 1 90 mg/kg, RAAS Blocker 5 mg/kg); 3.62, p = 0.03 mg/day in assay [1] (5/6 nephrectomy model (Table 3), Week 2, Compound 1 90 mg/kg, RAAS Blocker 5 mg/kg); 3.32, p < 0.0001 mg/day in assay [1] (5/6 nephrectomy model (Table 3), Week 3, Compound 1 90 mg/kg, RAAS Blocker 5 mg/kg); 9.4, p = 0.27 mg/day in assay [1] (setting [3]). Also, the UAER in assay [1] (setting [4]) is 7.7, p = 0.06 mg/day; in assay [1] (setting [5]), 1.7, p = 0.02 mg/day. In assay [1], the “UACR reduction vs vehicle” value worked out at 73.4%.

(Values after US11382915B2, “Treatment of focal segmental glomerulosclerosis with CCR2 antagonists” (CHEMOCENTRYX, INC., priority 2017, dated 2022).)
